Test results reported in US20190076431A1, “SRC INHIBITOR TO BLOCK CELL SURFACE GRP78 EXPRESSION” (University of Southern California, priority 2016, published 2019).

Assays:
cell surface GRP78 = assay: Biotinylated cell surface protein levels after DAS treatment of H929 MM cells (Western blot); type: cell-based; details: DAS 1 μM for the indicated time, biotinylated cell surface proteins
Description: Cell Surface Protein Biotinylation and Avidin Pull-down—Following treatment, the cells were washed with cold PBS 3 times. EZ-Link Sulfo-NHS-SS-Biotin (Thermo Scientific, Waltham, Mass.) in PBS at 0.5 mg/ml was added and the cells were gently shaken at 4° C. for 30 min. To stop the biotinylation reaction, the biotin solution was removed, and the cells were rinsed three times with the quenching buffer containing Tris-Cl pH 7.4 in cold PBS. Then cells were rinsed with cold PBS and subjected to either sodium carbonate extraction (see below) or radioimmune precipitation (RIPA) lysis. The RIPA lysis buffer was supplemented with protease and phosphatase inhibitor cocktail (Thermo Scientific). Protein concentrations were determined by Bradford assay (Bio-Rad Lab, Hercules, Calif.). Part of the lysate was saved as whole cell lysate for Western blots to measure the total level of the target proteins. To purify the surface proteins, the remaining lysates were mixed with High Capacity NeutrAvidin Agarose Resin (Thermo Scientific) at room temperature for 1 h, and the resin was washed by RIPA buffer and centrifuged at 3,000× g for 1 min ten times. […]
Immunoblot Analysis—Protein samples were subjected to 10% or 15% SDS-PAGE and Western blot analysis as previously described (9). […] Protein levels were visualized and quantitated by ChemiDoc™ XRS+ Imager (Bio-Rad Lab) or LI-COR Odyssey (LI-COR Biosciences).

csGRP78 = csGRP78 by flow cytometry in CD138+ MM cells from the bone marrow of a MM patient; type: cell-based, human; details: DAS 0.3 μM for 24 hr
Description: FIG. 11. […] (A) Peripheral blood mononuclear cells were isolated from the bone marrow of a MM patient and sorted into CD138+ (blue) and CD138− (non-malignant) cells (orange) and csGRP78 was measured by flow cytometry, with RPMI-8226 MM cell line (red) analyzed in parallel. (B) CD138+ MM cells were treated with DAS (0.3 μM) for 24 hr and assayed for csGRP78 by flow cytometry.

[1] = Enhancement of proteasome based therapy (summary statement)

## Cc1nc(Nc2ncc(C(=O)Nc3c(C)cccc3Cl)s2)cc(N2CCN(CCO)CC2)n1 [Dasatinib, dasatinib]
Cell surface GRP78
  cell surface GRP78 expression: Suppresses Cell Surface GRP78
csGRP78
  csGRP78 by flow cytometry: Suppresses Cell Surface GRP78
[1]
  effect on proteasome based therapy: enhance proteasome based therapy
